Source: US8377935B2, “Substituted aminopropenyl piperidine or morpholine derivatives as novel inhibitors of histone deacetylase” (Janssen Pharmaceutica N.V., priority 2005, dated 2013)
Read-outs that look alike come from different tables or passages of the source.

What was measured:
[1] = not given; remark: listed apart in the source
[2] = biological target: histone deacetylase (HeLa nuclear extracts); test: In vitro assay for inhibition of histone deacetylase (HDAC Fluorescent Activity Assay, Fluor de Lys); format: biochemical; conditions: HeLa nuclear extracts 60 μg/ml, 75 μM Fluor de Lys substrate
From the text: The in vitro assay for inhibition of histone deacetylase (see example C.1) measures the inhibition of HDAC enzymatic activity obtained with the compounds of formula (I).
The HDAC Fluorescent Activity Assay/Drug Discovery Kit of Biomol (cat.No: AK-500-0001) was used. The HDAC Fluorescent Activity Assay is based on the Fluor de Lys (Fluorogenic Histone deAcetylase Lysyl) substrate and developer combination. The Fluor de Lys substrate, comprises an acetylated lysine side chain. Deacetylation of the substrate sensitizes the substrate so that, in the second step, treatment with the Fluor de Lys developer produces a fluorophore.
HeLa nuclear extracts (supplier: Biomol) were incubated at 60 μg/ml with 75 μM of substrate. The Fluor de Lys substrate was added in a buffer containing 25 mM Tris, 137 mM. NaCl, 2.7 mM KCl and 1 mM MgCl2.6H2O at pH 7.4. After 30 min, 1 volume of the developer was added. The fluorophore was excited with 355 nm light and the emitted light (450 nm) was be detected on a fluorometric plate reader.
For each experiment, controls (containing HeLa nuclear extract and buffer), a blank incubation (containing buffer but no HeLa nuclear extract) and samples (containing compound dissolved in DMSO and further diluted in buffer and HeLa nuclear extract) were run in parallel. In first instance, compounds were tested at a concentration of 10^−5M. […] All sample were tested 4 times. In each test the blank value was substracted from both the control and the sample values. The control sample represented 100% of substrate deactylation. For each sample the fluorescence was expressed as a percentage of the mean value of the controls. […] Herein the effects of test compounds are expressed as pIC50 (the negative log value of the IC50-value) (see Table F-3).

[3] = system: A2780 ovarian carcinoma cells; test: Determination of antiproliferative activity on A2780 cells (MTT); format: cell-based; conditions: Homo sapiens, 96 h, four days of incubation, read-out: Cellular activity pIC50 (converted)
Protocol: Cellular activity of the compounds of formula (I) was determined on A2780 tumour cells using a colorimetric assay for cell toxicity or survival (Mosmann Tim, Journal of Immunological Methods 65:55-63, 1983)(see example C.2).
All compounds tested were dissolved in DMSO and further dilutions were made in culture medium. Final DMSO concentrations never exceeded 0.1% (v/v) in cell proliferation assays. Controls contained A2780 cells and DMSO without compound and blanks contained DMSO but no cells. MTT was dissolved at 5 mg/ml in PBS. A glycine buffer comprised of 0.1 M glycine and 0.1 M NaCl buffered to pH 10.5 with NaOH (1 N) was prepared (all reagents were from Merck).
The human A2780 ovarian carcinoma cells (a kind gift from Dr. T. C. Hamilton [Fox Chase Cancer Centre, Pennsylvania, USA]) were cultured in RPMI 1640 medium supplemented with 2 mM L-glutamine, 50 μg/ml gentamicin and 10% fetal calf serum. Cells were routinely kept as monolayer cultures at 37° C. in a humidified 5% CO2 atmosphere. Cells were passaged once a week using a trypsin/EDTA solution at a split ratio of 1:40. All media and supplements were obtained from Life Technologies. Cells were free of mycoplasma contamination as determined using the Gen-Probe Mycoplasma Tissue Culture kit (supplier: BioMerieux).
Cells were seeded in NUNC™ 96-well culture plates (Supplier: Life Technologies) and allowed to adhere to the plastic overnight. Densities used for plating were 1500 cells per well in a total volume of 200 μl medium. After cell adhesion to the plates, medium was changed and drugs and/or solvents were added to a final volume of 200 μl. Following four days of incubation, medium was replaced by 200 μl fresh medium and cell density and viability was assessed using an MTT-based assay. To each well, 25 μl MTT solution was added and the cells were further incubated for 2 hours at 37° C. The medium was then carefully aspirated and the blue MTT-formazan product was solubilized by addition of 25 μl glycine buffer followed by 100 μl of DMSO. […] Within an experiment, the results for each experimental condition are the mean of 3 replicate wells. For initial screening purposes, compounds were tested at a single fixed concentration of 10^−6 M. For active compounds, the experiments were repeated to establish full concentration-response curves. For each experiment, controls (containing no drug) and a blank incubation (containing no cells or drugs) were run in parallel. The blank value was subtracted from all control and sample values. For each sample, the mean value for cell growth (in absorbance units) was expressed as a percentage of the mean value for cell growth of the control. […] Herein the effects of test compounds are expressed as pIC50 (the negative log value of the IC50-value)(see Table F-3).

[4] = Solubility/stability (chemiluminescent nitrogen detector); format: physicochemical; conditions: water
From the text: The solubility of a compound measures the ability of a compound to stay in solution. The solubility of a compound at different pH's can be measured with the use of a chemiluminescent nitrogen detector (see example C.3).
The solubility of a compound, at different pH's, can be measured with the use of a chemiluminescent nitrogen detector.

[5] = Metabolic stability with rat hepatocytes cell culture; format: in vitro ADME; conditions: rat hepatocyte cell cultures, 5 μM
From the text: Metabolism of drugs means that a lipid-soluble xenobiotic or endobiotic compound is enzymatically transformed into (a) polar, water-soluble, and excretable metabolite(s). The major organ for drug metabolism is the liver. […] However, some metabolites may have enhanced activity or toxic effects. Thus drug metabolism may include both “detoxication” and “toxication” processes. One of the major enzyme systems that determine the organism's capability of dealing with drugs and chemicals is represented by the cytochrome P450 monooxygenases, which are NADPH dependent enzymes. Metabolic stability of compounds can be determined in vitro with the use of subcellular human tissue (see example C.5.a.). Here metabolic stability of the compounds is expressed as % of drug metabolised after 15 minutes incubation of these compounds with microsomes. Quantitation of the compounds was determined by LC-MS analysis. Metabolic stability of compounds can also be determined by calculating the half live of compounds in rat hepatocyte cells (see example C.5.b.). […]
Samples were prepared for LC-MS by addition of two volumes of DMSO. […] Of the resulting supernatant 50 μl was analysed by LC-MS. […]
Total injection volume of samples was 50 μL. […] The mass spectrometer was operated in positive ion mode in SIM adjusted to the mass of […] with a scan width of 1 Da for quantification purposes. […]

melting point [°C]	Enzyme activity pIC50 [2]	IC50 [3] [nM]	Compound	further results
100	8.7	158	CC(=O)N(CC1CCN(c2ncc(C(=O)NO)cn2)CC1)C(C)/C=C/c1ccccc1 (stereo not shown) [Compound 4]	solubility [4]: > 100 µg/mL
178	6.0	3160	Nc1ccccc1NC(=O)c1cnc(N2CCC(CNC(/C=C/c3ccccc3)CO)CC2)nc1 (stereo not shown) [Compound 5]	–
111	8.1	79.4	O=C(NO)c1cnc(N2CCOC(CNC(/C=C/c3ccccc3)CO)C2)nc1 (stereo not shown) [Compound 6]	–
95	6.0	1260	Nc1ccccc1NC(=O)c1cnc(N2CCOC(CNC(/C=C/c3ccccc3)CO)C2)nc1 (stereo not shown) [Compound 7]	–
110	9.5	200	CC(/C=C/c1ccccc1)N(CC1CCN(c2ncc(C(=O)NO)cn2)CC1)S(C)(=O)=O (stereo not shown) [Compound 8]	–

Continued, molecule first:

Compound	melting point [°C]	Enzyme activity pIC50 [2]	IC50 [3] [nM]	further results
O=C(NO)c1cnc(N2CCC(CNC(/C=C/c3ccccc3)CO)CC2)nc1 (stereo not shown) (hydrate or solvate) [Compound 1]	196	–	–	–
O=C(NO)c1cnc(N2CCC(NC(/C=C/c3ccccc3)CO)CC2)nc1 (stereo not shown) (hydrate or solvate) [Compound 2]	109	–	–	–
COc1cc(N)c(Cl)cc1C(=O)NC1CCN(CCCOc2ccc(F)cc2)CC1OC (stereo not shown) [Cisapride]	–	–	–	% metabolism ([1]; human, 15 min, 5 μM): 45%
O=C(NO)c1cnc(N2CCC(NC(/C=C/c3ccccc3)CO)CC2)nc1 (stereo not shown) [Compound 2]	–	8.0	158	solubility [4]: > 500 µg/mL
CC(/C=C/c1ccccc1)NCC1CCN(c2ncc(C(=O)NO)cn2)CC1 (stereo not shown) [Compound 3]	155	8.3	50.1	solubility [4]: > 1000 µg/mL
O=C(NO)c1cnc(N2CCN(S(=O)(=O)c3ccc4ccccc4c3)CC2)nc1 [Compound R306465, reference compound]	–	–	–	in vitro half-live [5]: 8 min
CCCO [propanol]	–	–	–	% metabolism ([1]; 15 min incubation with active microsomes, compound 5 μM): 25%
